Experimental data: publication PMC8198750, “Synthesis of Novel Halogenated Heterocycles Based on o-Phenylenediamine and Their Interactions with the Catalytic Subunit of Protein Kinase CK2” (Molecules, 2021)
Where two headings read alike, the source gives them in different places.

Tests used:
[1] = target: T1, hCK2α (Homo sapiens, UniProt P68400); test: nanoDSF thermal shift assay (low-volume differential scanning fluorimetry); type: binding
T1 construct: made in house
Experimental: Binding affinities of the newly synthesized compounds towards hCK2α were assessed with the low-volume differential scanning fluorimetry (nanoDSF). The shift of the temperature of thermal denaturation in the presence of 10-fold excess of a particular ligand relative to the apo form of hCK2α (ΔTm) can be used as a semi-qualitative measure of the binding affinity or inhibitory activity.
hCK2α was expressed and purified according to the method described previously. Thermal stability of 1:10 protein–ligand complexes was monitored on Prometheus (Nanotemper Technologies, München, Germany) using PR-C002 Prometheus NT.48 Standard Capillaries using temperature ramp of 20 to 80 °C with 1 °C/min heating rate. Temperature-induced variation in ratio fluorescence intensity at 330 and 350 nm was globally analyzed using the procedure described before. All experiments were performed in 25 mM Tris–HCl (pH 8, 0.5 M NaCl) with 2% (v/v) DMSO. Protein was kept in constant 2.5 μM concentration.

[2] = RP-HPLC chromatographic hydrophobicity index; type: physicochemical; settings: C18, 2:1 methanol:20 mM aqueous ammonium formate pH 8; τ = (Tret − T0)/T0
Experimental: RP-HPLC method, a fast and efficient alternative for standard logD determination in octan-1-ol/water system, was used to assess the hydrophobicity of all synthesized compounds. This method has been successfully used in our laboratory for halogenated benzotriazole derivatives, including the evaluation of the effect of hydrophobicity on their binding to the catalytic subunit of protein kinase CK2 [24, 43].
Chromatographic hydrophobicity index (log(τ)) was determined with the reverse phase HPLC (RP-HPLC). Column: Nova-pak® C18 4 μm, 4.6 × 250 mm. Eluent: 2:1 methanol: 20 mM aqueous ammonium formate (pH = 8) (v/v). Flow: 0.7 mL/min. Detector wavelength: 280 nm. The individual retention times (Tret) were converted to a hydrophobicity scale according to the formula τ = (Tret − T0)/T0. where the retention time of unretained solvent (T0) was estimated to 300 s.

[3] = target: CK2; settings: cited from earlier work
[4] = target: T1, hCK2α; test: Inhibitory activity against human CK2α (ADP-Glo kinase assay); type: biochemical; settings: inhibitor 1 nM–1 mM, triplicate
Experimental: The inhibitory effect of 8 selected compounds was monitored based on the luminescence measured with the SpectraMax iD3 Multi-Mode Microplate Reader (Molecular Devices, San Jose, CA, USA), using the previously described method with the aid of ADP-Glo kinase assay (Promega, Walldorf, Germany). Inhibitor concentration varied in the range of 1 nM–1 mM (see Supplementary Figure S38). Each experiment was repeated in triplicate and IC50 values were further estimated globally using the sigmoidal dose-response equation implemented in Origin 9.4 package (www.originlab.com, upgraded 20.07.27).

[5] = test system: epidermoid carcinoma A-431; test: MTT cell viability assay, A-431; type: cell-based; settings: Homo sapiens, 72 h
Source text: (§1) The following human cell lines were used in this study: (i) epidermoid carcinoma A-431 (ATCC® CRL-1555), (ii) colorectal carcinoma HCT116 (ATCC® CCL-247), (iii) colorectal carcinoma HCT116p53^−/−, and (iv) normal fibroblasts BJ (ATCC® CRL-2522). The HCT116p53^−/− cell line was a kind gift from professor Bert Vogelstein (John Hopkin’s University, Baltimore, MD, USA). The remaining cell lines were purchased from ATCC (Manassas, VA, USA) or Sigma Aldrich by Merck (Darmstadt, Germany).
(§2) Cells were cultured in Dulbecco’s modified Eagle’s or Roswell Park Memorial Institute (RPMI)-1640 medium supplemented with 10% or 15% fetal bovine serum (Gibco by Thermo Fisher Scientific, Waltham, MA, USA) under standard culture conditions (37 °C, 5% CO2) in a humidified incubator with atmospheric oxygen.
(§3) The viability of cells was assayed by measuring the conversion of MTT (3-(4,5-dimethylthiazol-2-yl)-2,5-diphenyltetrazolium bromide) to the formazan (the rate of this reaction is proportional to the number of surviving cells). Cells were seeded in a 96-well plate at a density of 1500–2500 cells per well, 24 h before treatment. Treatment with tested compounds and cisplatin (0.25–160 µM) was performed for 72 h. MTT stock solution (Sigma-Aldrich) was added at the final concentration 0.5 mg/mL. After 2 h of incubation at 37 °C, water-insoluble formazan was dissolved in a lysis buffer containing 20% SDS, 50% DMF, 2.5% hydrochloric acid, and 2.5% acetic acid. Optical densities were measured at 570 nm using a scanning multi-well spectrophotometer ([…] Detection Platform; Beckman Coulter, Brea, CA, USA).

[6] = test system: normal fibroblasts BJ; test: MTT cell viability assay, BJ; type: cell-based, human; settings: for IC50: Homo sapiens, Fibroblast, MTT, 72 h
Source text: as §1, §2, §3

[7] = test system: colorectal carcinoma HCT116; test: MTT cell viability assay, HCT116; type: cell-based; settings: Homo sapiens, HCT-116, 72 h, read-out: IC50 HTC116
Source text: as §1, §2, §3

[8] = test system: colorectal carcinoma HCT116p53−/−; test: MTT cell viability assay, HCT116p53−/−; type: cell-based; settings: Homo sapiens, 72 h
Source text: as §1, §2, §3

[9] = 10-fold excess of ligand (1:10 protein–ligand), 2.5 μM protein, relative to apo hCK2α, 2% DMSO, pH 8
[10] = read-out: IC50 against CK2 / inhibitory activity
[11] = 10-fold excess of ligand (1:10 protein–ligand), 2.5 μM protein, relative to apo hCK2α, 2% DMSO, pH 8, read-out: ΔTm

T1 sequence (P68400 whole entry): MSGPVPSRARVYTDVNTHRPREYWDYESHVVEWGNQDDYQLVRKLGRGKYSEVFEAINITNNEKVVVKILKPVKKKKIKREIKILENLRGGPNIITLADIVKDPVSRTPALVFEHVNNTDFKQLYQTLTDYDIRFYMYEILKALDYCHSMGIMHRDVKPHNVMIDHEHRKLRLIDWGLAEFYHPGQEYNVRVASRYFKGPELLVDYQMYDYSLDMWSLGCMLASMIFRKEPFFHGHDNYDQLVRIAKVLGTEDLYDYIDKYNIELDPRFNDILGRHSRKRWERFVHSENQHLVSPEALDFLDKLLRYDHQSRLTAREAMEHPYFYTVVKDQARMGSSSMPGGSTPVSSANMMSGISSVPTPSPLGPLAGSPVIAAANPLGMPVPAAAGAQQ

| Molecule | log(τ) HPLC-derived hydrophobicity index [2] | ΔTm at 25 µM [1, 11] [°C] | also measured |
| --- | --- | --- | --- |
| 6,7-dichloroquinoxaline-1,3-diol [Compound 7c] | −0.227 | – | ΔTm [1, 9]: 1.2 ± 0.1 °C |
| 6,7-difluoroquinoxaline-1,3-diol [Compound 7b] | −0.548 | – | ΔTm [1, 9]: 0.2 ± 0.1 °C |
| O=c1[nH]c2c(Br)c(Br)c(Br)c(Br)c2[nH]1 [4,5,6,7-tetrabromo-1H-benzo[d]imidazol-2(3H)-one] | – | – | Ki [3]: 0.2 µM; IC50 ([3]; read-out: IC50 CK2): 0.39 µM |
| FC(F)(F)c1nc2c(Br)c(Br)c(Br)cc2[nH]1 [4,5,6-tribrominated] | – | – | IC50 [3, 10]: 1.2 µM |
| Nc1ccccc1N [Compound 1a, benzo-1,2-diamine] | −0.651 | – | ΔTm at 25 µM ([1]; pH 8, read-out: ΔTm): -0.1 ± 0.1 °C |
| Nc1cc(F)c(F)cc1N [Compound 1b] | −0.591 | -0.1 ± 0.1 | – |
| Nc1cc(Cl)c(Cl)cc1N [Compound 1c] | −0.298 | 0.1 ± 0.1 | – |
| Nc1cc(Br)c(Br)cc1N [Compound 1d] | −0.208 | 0.2 ± 0.1 | – |
| Nc1cc(I)c(I)cc1N [Compound 1e, 4,5-diiodobenzene-1,2-diamine] | −0.093 | 1.7 ± 0.1 | – |
| c1ccc2nsnc2c1 [Compound 2a, 2,1,3-benzothiadiazole] | 0.009 | 0 | – |
| Fc1cc2nsnc2cc1F [Compound 2b, 5,6-difluoro-2,1,3-benzothiadiazole] | 0.169 | -0.3 ± 0.1 | – |
| Clc1cc2nsnc2cc1Cl [Compound 2c, 5,6-dichloro-2,1,3-benzothiadiazole] | 0.179 | 0.2 ± 0.1 | – |
| Brc1cc2nsnc2cc1Br [Compound 2d, 5,6-dibromo-2,1,3-benzothiadiazole] | 0.461 | 0.2 ± 0.1 | – |
| Ic1cc2nsnc2cc1I [Compound 2e, 5,6-diiodo-2,1,3-benzothiadiazole] | 0.468 | 0.2 ± 0.1 | – |
| FC(F)(F)c1nc2ccccc2[nH]1 [Compound 3a, 2-trifluoromethylo-1H-benzimidazole] | −0.270 | – | ΔTm at 25 µM ([1]; pH 8, read-out: ΔTm): 0.4 ± 0.1 °C |
| Fc1cc2nc(C(F)(F)F)[nH]c2cc1F [Compound 3b, 5,6-difluoro-2-trifluoromethylo-1H-benzimidazole] | −0.095 | 0.8 ± 0.1 | – |
| FC(F)(F)c1nc2cc(Cl)c(Cl)cc2[nH]1 [Compound 3c, 5,6-dichlorlo-2-trifluoromethylo-1H-benzimidazole] | 0.234 | 1.2 ± 0.1 | – |

| Molecule | log(τ) HPLC-derived hydrophobicity index [2] | ΔTm at 25 µM [1, 11] [°C] | also measured |
| --- | --- | --- | --- |
| FC(F)(F)c1nc2cc(I)c(I)cc2[nH]1 [Compound 3e, 5,6-diiodo-2-trifluoromethylo-1H-benzimidazole] | 0.409 | 4.3 ± 0.1 | IC50 [4]: 7 ± 4 µM; IC50 [5]: 7 ± 1 µM; IC50 [6]: 55 ± 5 µM; selectivity index ([6]; relative to BJ fibroblasts): ~ 10; IC50 [7]: 6 ± 1 µM; IC50 [8]: 6 ± 1 µM |
| OCc1nc2ccccc2[nH]1 [Compound 4a, 2-hydroxymethylo-1H-benzimidazole] | −0.579 | 0.4 ± 0.1 | – |
| OCc1nc2cc(Cl)c(Cl)cc2[nH]1 [Compound 4c, 5,6-dichloro-2-hydroxymethylo-1H-benzimidazole] | −0.079 | 0.7 ± 0.1 | – |
| OCc1nc2cc(Br)c(Br)cc2[nH]1 [Compound 4d, 5,6-dibromo-2-hydroxymethylo-1H-benzimidazole] | 0.010 | 1.9 ± 0.1 | IC50 [4]: > 1000 µM; IC50 [5]: 45 ± 5 µM; IC50 [6]: 145 ± 15 µM; IC50 [7]: 21 ± 1 µM; IC50 [8]: 28 ± 3 µM |
| OCc1nc2cc(I)c(I)cc2[nH]1 [Compound 4e, 5,6-diiodo-2-hydroxymethylo-1H-benzimidazole] | 0.088 | 3.7 ± 0.1 | IC50 [4]: 25 ± 5 µM; IC50 [5]: 39 ± 10 µM; IC50 [6]: 15 ± 2 µM; IC50 [7]: 20 ± 2 µM; IC50 [8]: 23 ± 2 µM |
| O=c1[nH]c2ccccc2[nH]1 [Compound 5a, 1H-benzo[d]imidazol-2(3H)-one] | −0.591 | 0.8 ± 0.1 | – |
| O=c1[nH]c2cc(Cl)c(Cl)cc2[nH]1 [Compound 5c, 5,6-dichloro-1H-benzo[d]imidazol-2(3H)-one] | −0.084 | 0.8 ± 0.1 | – |
| O=c1[nH]c2cc(Br)c(Br)cc2[nH]1 [Compound 5d, 5,6-dibromo-1H-benzo[d]imidazol-2(3H)-one] | 0.003 | 1.8 ± 0.1 | IC50 [4]: > 1000 µM; IC50 [5]: 180 ± 40 µM; IC50 [6]: 40 ± 5 µM; IC50 [7]: 18 ± 3 µM; IC50 [8]: 22 ± 3 µM |
| O=c1[nH]c2cc(I)c(I)cc2[nH]1 [Compound 5e, 5,6-diiodo-1H-benzo[d]imidazol-2(3H)-one] | 0.082 | 2.4 ± 0.1 | IC50 [4]: 13 ± 2 µM |
| c1ccc2nccnc2c1 [Compound 6a, quinoxaline] | −0.295 | -0.1 ± 0.1 | – |
| Clc1cc2nccnc2cc1Cl [Compound 6c, 6,7-dichloroquinoxaline] | 0.495 | 0.1 ± 0.1 | – |
| Brc1cc2nccnc2cc1Br [Compound 6d, 6,7-dibromoquinoxaline] | 0.588 | 0.4 ± 0.1 | – |
| Ic1cc2nccnc2cc1I [Compound 6e, 6,7-diiodoquinoxaline] | 0.618 | 0.4 ± 0.1 | – |
| Oc1nc2cc(Br)c(Br)cc2nc1O [Compound 7d] | −0.174 | 2.7 ± 0.1 | IC50 [4]: 13 ± 4 µM; IC50 [5]: 385 ± 82 µM; IC50 [6]: 16 ± 2 µM; IC50 [7]: 195 ± 35 µM; IC50 [8]: 850 ± 300 µM |
| FC(F)(F)c1nc2c(Br)c(Br)c(Br)c(Br)c2[nH]1 [tetrabrominated] | – | – | IC50 [3, 10]: 0.6 µM |
| quinoxaline-1,3-diol [Compound 7a] | −0.699 | – | ΔTm [1, 9]: 0.1 ± 0.1 °C |
